Data reported in patent publication US20070099915A1, “INHIBITORS OF THE HIV INTEGRASE ENZYME” (PFIZER INC., priority 2005, published 2007).
Counter-ions that a name gives are not always drawn. Like-named read-outs stand apart in the source and are kept apart here.

Tests used:
[1] = target: T1, Full-length wild type HIV-1 integrase (SF1) (Human immunodeficiency virus type 1 group M subtype B, UniProt P04585); assay: Integrase strand-transfer scintillation proximity assay; type: biochemical
T1 construct: made in house; host or cells: E. coli BL21 (DE3)
Source text: The annealed product represents preprocessed viral ds-DNA derived from the LTR U5 sequence of the viral genome. A ds-DNA control to test for non-specific interactions was made using a 3′ di-deoxy derivative of oligonucleotide #1 annealed to oligonucleotide #2. The CA overhang at the 5′ end of the non-biotinylated strand of the ds-DNA was created artificially by using a complimentary DNA oligonucleotide shortened by 2 base pairs. This configuration eliminates the requisite 3′ processing step of the integrase enzyme prior to the strand-transfer mechanism.
The annealed product had overhanging 3′ ends of poly(dA). […] The radiolabeled product was purified using a NENSORB cartridge and stored in stabilized aqueous solution (PerkinElmer).
Reagents: Streptavidin-coated polyvinyltoluene (PVT) SPA beads were purchased from Amersham Biosciences (Piscataway, N.J.). Cesium chloride was purchased from Shelton Scientific, Inc. (Shelton, Conn.). White, polystyrene, flat-bottom, non-binding surface, 96-well plates were purchased from Corning. All other buffer components were purchased from Sigma (St. Louis, Mo.) unless otherwise indicated.
Enzyme Construction: Full-length wild type HIV-1 integrase (SF1) sequence (amino acids 1-289) was constructed in a pET24a vector (Novagen, Madison, Wis.).
Enzyme Purification: Full length wild-type HIV Integrase was expressed in E. coli BL21 (DE3) cells and induced with 1 mM isopropyl-1 thio-β-D-galactopyranoside (IPTG) when cells reached an optical density between 0.8-1.0 at 600 nm. Cells were lysed by microfluidation in 50 mM HEPES pH 7.0, 75 mM NaCl, 5 mM DTT, 1 mM 4-(2-Aminoethyl)benzenesulfonylfluoride HCl (AEBSF). Lysate was then centrifuged 20 minutes at 11 k rpm in GSA rotor in Sorvall RC-5B at 4° C. Supernant was discarded and pellet resuspended in 50 mM HEPES pH 7.0, 750 mM NaCl, 5 mM DTT, 1 mM AEBSF and homogenized in a 40 mL Dounce homogenizer for 20 minutes on ice. Homogenate was then centrifuged 20 minutes at 11 k rpm in SS34 rotor in Sorvall RC-5B at 4° C. Supernant was discarded and pellet resuspended in 50 mM HEPES pH 7.0, 750 mM NaCl, 25 mM CHAPS, 5 mM DTT, 1 mM AEBSF. Preparation was then centrifuged 20 minutes at 11 k rpm in SS34 rotor in Sorvall RC-5B at 4° C.
Supernant was then diluted 1:1 with 50 mM HEPES pH 7.0, 25 mM CHAPS, 1 mM DTT, 1 mM AEBSF and loaded onto a Q-Sepharose column pre-equilibrated with 50 mM HEPES, pH 7.0, 375 mM NaCl, 25 mM CHAPS, 1 mM DTT, 1 mM AEBSF. The flow through peak was collected and NaCl diluted to 0.1 M with 50 mM HEPES pH 7.0, 25 mM CHAPS, 1 mM DTT, 0.5 mM AEBSF and loaded onto a SP-Sepharose column pre-equilibrated with 50 mM HEPES pH 7.0, 100 mM NaCl, 25 mM CHAPS, 1 mM DTT, 0.5 mM AEBSF. After washing the column with the equilibration buffer, a 100 to 400 mM NaCl gradient was run. The eluted integrase was concentrated and run on a S-300 gel diffusion column using 50 mM HEPES pH 7.0, 500 mM NaCl, 25 mM CHAPS, 1 mM DTT, 0.5 mM AEBSF. […] All columns were run in a 4° C. cold room.
Viral DNA Bead Preparation: Streptavidin-coated SPA beads were suspended to 20 mg/mL in 25 mM 3-morpholinopropanesulfonic acid (MOPS) (pH 7.2) and 1.0% NaN3. Biotinylated viral DNA was bound to the hydrated SPA beads in a batch process by combining […] of ds-DNA to 1 mg of suspended SPA beads (10 μL of 50 μM viral DNA to 1 mL of 20 mg/mL SPA beads). The mixture was incubated at 22° C. for a minimum of 20 min. with occasional mixing followed by centrifugation at 2500 rpm for 10 min.

[2] = test system: HIV-1 RF virus in CEM-SS cells; assay: HIV-1 cell protection assay (XTT dye reduction); type: cell-based
Description: Six days later, 50 μl of XTT solution (1 mg/ml XTT tetrazolium and 20 nM phenazine methosulfate) were added to the wells and the plates were reincubated for four hours. Viability, as determined by the amount of XTT formazan produced, was quantified spectrophotometrically by absorbance at 450 nm.
Data from CPE assays were expressed as the percent of formazan produced in compound-treated cells compared to formazan produced in wells of uninfected, compound-free cells. […] The 50% cytotoxicity concentration (CC50) was calculated as the concentration of compound that decreased the percentage of formazan produced in uninfected, compound-treated cells to 50% of that produced in uninfected, compound-free cells. The therapeutic index was calculated by dividing the cytotoxicity (CC50) by the antiviral activity (EC50).

[3] = Human immunodeficiency virus 1, 144 h, RF strain of HIV-1, CEM-SS cells, XTT read-out after six days, read-out: EC50
[4] = strand-transfer SPA, 246 nM integrase, 50 nM host DNA, 37° C., 50 min, read-out: IC50
[5] = Human immunodeficiency virus 1, CEM-SS, 144 h

Cc1c(CN2CCOCC2)c2c(ncc3c2ccn3Cc2ccc(F)cc2)c(=O)n1O [Example 44, 3-(4-fluorobenzyl)-7-hydroxy-8-methyl-9-(morpholin-4-ylmethyl)-3,7-dihydro-6H-pyrrolo[2,3-c]-1,7-naphthyridin-6-one]
IC50 [1]: 9.07 nM | EC50 [2, 3]: 0.45 nM

CC(=O)CCCOCc1cn(Cc2ccc(F)cc2)c2cnc3c(c12)CCN(O)C3=O [Example 63, 3-(4-fluorobenzyl)-7-hydroxy-1-{[(4-oxopentyl)oxy]methyl}-3,7,8,9-tetrahydro-6H-pyrrolo[2,3-c]-1,7-naphthyridin-6-one]
IC50 [1, 4]: 10 nM | EC50 [2, 3]: 3 nM

CCOCCCOCc1cn(Cc2ccc(F)cc2)c2cnc3c(c12)CCN(O)C3=O [Example 51, 1-[(3-ethoxypropoxy)methyl]-3-(4-fluorobenzyl)-7-hydroxy-3,7,8,9-tetrahydro-6H-pyrrolo[2,3-c]-1,7-naphthyridin-6-one hydrochloride]
IC50 [1, 4]: 17 nM | EC50 [2, 5]: 0.4 nM

O=c1c2ncc3c(c(-c4ccccn4)cn3Cc3ccc(F)cc3)c2ccn1O [Example 9, 3-(4-fluorobenzyl)-7-hydroxy-1-pyridin-2-yl-3,7-dihydro-6H-pyrrolo[2,3-c]-1,7-naphthyridin-6-one]
IC50 [1, 4]: 29 nM | EC50 [2, 3]: 2 nM

O=C1c2ncc3c(ccn3Cc3ccc(F)cc3)c2C=CCN1O [Example 10, 3-(4-fluorobenzyl)-7-hydroxy-7,8-dihydropyrrolo[3′,2′:4,5]pyrido[2,3-c]azepin-6(3H)-one]
IC50 [1]: 17 nM | EC50 [2, 3]: 0.59 nM

COCCN(Cc1cn(Cc2ccc(F)cc2)c2cnc3c(c12)CCN(O)C3=O)C(C)(C)C [Example 40, 1-{[tert-butyl(2-methoxyethyl)amino]methyl}-3-(4-fluorobenzyl)-7-hydroxy-3,7,8,9-tetrahydro-6H-pyrrolo[2,3-c]-1,7-naphthyridin-6-one]
IC50 [1, 4]: 24.4 nM | EC50 [2, 3]: 4.6 nM

CCCN(CCO)Cc1cn(Cc2ccc(F)cc2)c2cnc3c(=O)n(O)c(C)cc3c12 [Example 97, 3-(4-fluorobenzyl)-7-hydroxy-1-{[(2-hydroxyethyl)(propyl)amino]methyl}-8-methyl-3,7-dihydro-6H-pyrrolo[2,3-c]-1,7-naphthyridin-6-one]
IC50 [1, 4]: 17 nM | EC50 [2, 3]: 0.69 nM

O=C1c2ncc3c(c(CN4CCCC4)cn3Cc3ccc(F)cc3)c2CCN1O [Example 23, 3-(4-fluorobenzyl)-7-hydroxy-1-(pyrrolidin-1-ylmethyl)-3,7,8,9-tetrahydro-6H-pyrrolo[2,3-c]-1,7-naphthyridin-6-one]
IC50 [1]: 27 nM | EC50 [2, 5]: 4 nM

O=C1c2ncc3c(c(CCCOCCN4CCOCC4)cn3Cc3ccc(F)cc3)c2CCN1O [Example 128, 3-(4-fluorobenzyl)-7-hydroxy-1-[3-(2-morpholin-4-ylethoxy)propyl]-3,7,8,9-tetrahydro-6H-pyrrolo[2,3-c]-1,7-naphthyridin-6-one]
IC50 [1, 4]: 21 nM | EC50 [2, 3]: 5 nM

COCCN1CCN(Cc2cn(Cc3ccc(F)cc3)c3cnc4c(c23)CCN(O)C4=O)CC1 [Example 49, 3-(4-fluorobenzyl)-7-hydroxy-1-{[4-(2-methoxyethyl)piperazin-1-yl]methyl}-3,7,8,9-tetrahydro-6H-pyrrolo[2,3-c]-1,7-naphthyridin-6-one]
IC50 [1, 4]: 16.2 nM | EC50 [2, 3]: 3.2 nM

CCN(C)Cc1cn(Cc2ccc(F)cc2)c2cnc3c(c12)CCN(O)C3=O [Example 71, 1-{[ethyl(methyl)amino]methyl}-3-(4-fluorobenzyl)-7-hydroxy-3,7,8,9-tetrahydro-6H-pyrrolo[2,3-c]-1,7-naphthyridin-6-one]
IC50 [1, 4]: 27 nM | EC50 [2, 3]: 8 nM

O=C1c2ncc3c(c(CCN4CCC(F)(F)C4)cn3Cc3ccc(F)cc3)c2CCN1O [Example 109, 3-(4-fluorobenzyl)-1-(2-(3,3-difluoropyrrolidin-1-yl)ethyl)-7-hydroxy-8,9-dihydro-3H-pyrrolo[2,3-c][1,7]naphthyridin-6(7H)-one]
IC50 [1, 4]: 14 nM | EC50 [2, 3]: 1 nM

CN(Cc1cn(Cc2ccc(F)cc2)c2cnc3c(c12)CCN(O)C3=O)C1CCCOC1 (stereo not shown) [Example 50, 3-(4-fluorobenzyl)-7-hydroxy-1-{[methyl(tetrahydro-2H-pyran-3-yl)amino]methyl}-3,7,8,9-tetrahydro-6H-pyrrolo[2,3-c]-1,7-naphthyridin-6-one]
IC50 [1, 4]: 11.9 nM | EC50 [2, 3]: 1.8 nM

O=c1c2ncc3c(c(COCCOCc4ccccc4)cn3Cc3ccc(F)cc3)c2ccn1O [Example 92, 1-{[2-(benzyloxy)ethoxy]methyl}-3-(4-fluorobenzyl)-7-hydroxy-3,7-dihydro-6H-pyrrolo[2,3-c]-1,7-naphthyridin-6-one]
IC50 [1, 4]: 3 nM | EC50 [2, 3]: 10 nM

CN(C)CCc1cn(Cc2ccc(F)cc2)c2cnc3c(c12)CCN(O)C3=O [Example 104, 3-(4-fluorobenzyl)-1-(2-(dimethylamino)ethyl)-7-hydroxy-8,9-dihydro-3H-pyrrolo[2,3-c][1,7]naphthyridin-6(7H)-one]
IC50 [1, 4]: 24 nM | EC50 [2, 3]: 32 nM

Cc1cc2c(ncc3c2c(CN2CCN(C)CC2)cn3Cc2ccc(F)cc2)c(=O)n1O [Example 95, 3-(4-fluorobenzyl)-7-hydroxy-8-methyl-1-[(4-methylpiperazin-1-yl)methyl]3,7-dihydro-6H-pyrrolo[2,3-c]-1,7-naphthyridin-6-one]
IC50 [1, 4]: 14 nM | EC50 [2, 3]: 0.45 nM

O=C1c2ncc3c(c(COCCOc4ccccc4)cn3Cc3ccc(F)cc3)c2CCN1O [Example 67, 3-(4-fluorobenzyl)-7-hydroxy-1-[(2-phenoxyethoxy)methyl]-3,7,8,9-tetrahydro-6H-pyrrolo[2,3-c]-1,7-naphthyridin-6-one]
IC50 [1, 4]: 15 nM | EC50 [2, 3]: 1 nM

CC(C)COCc1cn(Cc2ccc(F)cc2)c2cnc3c(c12)CCN(O)C3=O [Example 56, 3-(4-fluorobenzyl)-7-hydroxy-1-(isobutoxymethyl)-3,7,8,9-tetrahydro-6H-pyrrolo[2,3-c]-1,7-naphthyridin-6-one]
IC50 [1, 4]: 11 nM | EC50 [2, 3]: 0.32 nM

O=C1c2ncc3c(c(Cl)cn3Cc3ccc(F)cc3)c2CCN1O [Example 52, 1-chloro-3-(4-fluorobenzyl)-7-hydroxy-3,7,8,9-tetrahydro-6H-pyrrolo[2,3-c]-1,7-naphthyridin-6-one]
IC50 [1, 4]: 19 nM | EC50 [2, 3]: 0.91 nM

COC(C)(C)CCc1cn(Cc2ccc(F)cc2)c2cnc3c(c12)CCN(O)C3=O [Example 121, 3-(4-fluorobenzyl)-7-hydroxy-1-(3-methoxy-3-methylbutyl)-3,7,8,9-tetrahydro-6H-pyrrolo[2,3-c]-1,7-naphthyridin-6-one]
IC50 [1, 4]: 14 nM | EC50 [2, 3]: 0.4 nM
